Source: PubChem BioAssay (NCI)
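Method: 48-hour compound exposure of cells in 96-well plates, five concentrations, linear interpolation of endpoints. Here, GI50 denotes the concentration required for 50% inhibition of growth. At the TGI there is no net growth.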

Assays:
Assay in all cases: NCI-60 cell line screen, 48 h; in the data active = GI50 below about 0.43 µM; inactive = the rest
OVCAR-4 ovarian = test system: OVCAR-4 ovarian
BT-549 breast = test system: BT-549 breast
MOLT-4 leukemia = test system: MOLT-4 leukemia
IGROV1 ovarian = test system: IGROV1 ovarian
OVCAR-5 ovarian = test system: OVCAR-5 ovarian
HS 578T breast = test system: HS 578T breast
HCC-2998 colon = test system: HCC-2998 colon
NCI-H23 lung = test system: NCI-H23 lung
RPMI-8226 leukemia = test system: RPMI-8226 leukemia
MALME-3M melanoma = test system: MALME-3M melanoma
TK-10 renal = test system: TK-10 renal
NCI-H460 lung = test system: NCI-H460 lung
SF-295 CNS = test system: SF-295 CNS
A549 NSCLC = test system: A549 NSCLC
PC-3 prostate = test system: PC-3 prostate
HOP-62 NSCLC = test system: HOP-62 NSCLC
ACHN renal = test system: ACHN renal
SR leukemia = test system: SR leukemia
U251 CNS = test system: U251 CNS
M14 melanoma = test system: M14 melanoma
SNB-19 CNS = test system: SNB-19 CNS
UACC-62 melanoma = test system: UACC-62 melanoma
HCT-116 colon = test system: HCT-116 colon
HL-60(TB) leukemia = test system: HL-60(TB) leukemia
RXF 393 renal = test system: RXF 393 renal
T-47D breast = test system: T-47D breast
SK-MEL-28 melanoma = test system: SK-MEL-28 melanoma
MCF7 breast = test system: MCF7 breast
HT29 colon = test system: HT29 colon
MDA-MB-435 = test system: MDA-MB-435
UACC-257 melanoma = test system: UACC-257 melanoma
A498 renal = test system: A498 renal
DU-145 prostate = test system: DU-145 prostate
HCT-15 colon = test system: HCT-15 colon
SF-268 CNS = test system: SF-268 CNS
UO-31 renal = test system: UO-31 renal
NCI-H226 lung = test system: NCI-H226 lung
EKVX NSCLC = test system: EKVX NSCLC
MDA-MB-231 breast = test system: MDA-MB-231 breast
SF-539 CNS = test system: SF-539 CNS
NCI-H522 lung = test system: NCI-H522 lung
OVCAR-8 ovarian = test system: OVCAR-8 ovarian
CCRF-CEM leukemia = test system: CCRF-CEM leukemia
COLO 205 colon = test system: COLO 205 colon
SK-MEL-5 melanoma = test system: SK-MEL-5 melanoma
HOP-92 NSCLC = test system: HOP-92 NSCLC
NCI/ADR-RES ovarian = test system: NCI/ADR-RES ovarian
CAKI-1 renal = test system: CAKI-1 renal
SK-MEL-2 melanoma = test system: SK-MEL-2 melanoma
SNB-75 CNS = test system: SNB-75 CNS
K-562 leukemia = test system: K-562 leukemia
SN12C renal = test system: SN12C renal
KM12 colon = test system: KM12 colon
LOX IMVI melanoma = test system: LOX IMVI melanoma
SK-OV-3 ovarian = test system: SK-OV-3 ovarian
786-0 renal = test system: 786-0 renal

CC1(C)C2CCC13C(=O)C1OC3(C2)C2C(=O)c3c(O)ccc(O)c3C(=O)C12 (stereo unspecified)
46.8 µM: TGI (HOP-92 NSCLC)
37.5 µM: TGI (NCI-H23 lung)
96.9 µM: TGI (U251 CNS)
> 56.9 µM: TGI (RXF 393 renal)
> 66.7 µM: TGI (UACC-257 melanoma)
> 83.4 µM: TGI (HT29 colon)
98.5 µM: TGI (PC-3 prostate)
69 µM: TGI (TK-10 renal)
> 59.1 µM: TGI (K-562 leukemia)
96.5 µM: TGI (DU-145 prostate)
41.5 µM: TGI (SK-MEL-5 melanoma)
29.2 µM: TGI (M14 melanoma)
inactive: GI50 (OVCAR-4 ovarian) > 100 µM | GI50 (BT-549 breast) > 70.3 µM | GI50 (MOLT-4 leukemia) 5.93 µM | GI50 (IGROV1 ovarian) 23.8 µM | GI50 (OVCAR-5 ovarian) 38.3 µM | GI50 (HCC-2998 colon) 42.9 µM | GI50 (NCI-H23 lung) 16.4 µM | GI50 (RPMI-8226 leukemia) 1.27 µM | GI50 (MALME-3M melanoma) 18.3 µM | GI50 (TK-10 renal) 26.1 µM | GI50 (NCI-H460 lung) 36.8 µM | GI50 (SF-295 CNS) 25.2 µM | GI50 (A549 NSCLC) 46.6 µM | GI50 (PC-3 prostate) 30.8 µM | GI50 (HOP-62 NSCLC) 54.5 µM | GI50 (ACHN renal) 41 µM | GI50 (SR leukemia) 5.17 µM | GI50 (U251 CNS) 44.4 µM | GI50 (M14 melanoma) 14.1 µM | GI50 (SNB-19 CNS) 61.5 µM | GI50 (UACC-62 melanoma) 97.1 µM | GI50 (HCT-116 colon) 34.9 µM | GI50 (HL-60(TB) leukemia) 10.6 µM | GI50 (RXF 393 renal) 31.1 µM | GI50 (T-47D breast) 36.7 µM | GI50 (SK-MEL-28 melanoma) 36 µM | GI50 (MCF7 breast) 35 µM | GI50 (HT29 colon) 34.1 µM | GI50 (MDA-MB-435) 34.9 µM | GI50 (UACC-257 melanoma) 32.7 µM | GI50 (A498 renal) 4.95 µM | GI50 (DU-145 prostate) 32.2 µM | GI50 (HCT-15 colon) 18.5 µM | GI50 (SF-268 CNS) > 47.1 µM | GI50 (UO-31 renal) 40.5 µM | GI50 (NCI-H226 lung) > 79 µM | GI50 (EKVX NSCLC) > 100 µM | GI50 (MDA-MB-231 breast) 44.2 µM | GI50 (SF-539 CNS) 48 µM | GI50 (NCI-H522 lung) 38.8 µM | GI50 (OVCAR-8 ovarian) 47.2 µM | GI50 (CCRF-CEM leukemia) 4.45 µM | GI50 (COLO 205 colon) 25.9 µM | GI50 (SK-MEL-5 melanoma) 13.4 µM | GI50 (HOP-92 NSCLC) 17.8 µM | GI50 (NCI/ADR-RES ovarian) 17.5 µM | GI50 (CAKI-1 renal) 4.31 µM | GI50 (SK-MEL-2 melanoma) 26.1 µM | GI50 (SNB-75 CNS) > 44.4 µM | GI50 (K-562 leukemia) 21.2 µM | GI50 (SN12C renal) 16.3 µM | GI50 (KM12 colon) > 50.4 µM | GI50 (LOX IMVI melanoma) 32.2 µM | GI50 (SK-OV-3 ovarian) 42.2 µM | GI50 (786-0 renal) 10.5 µM
> 64.8 µM: TGI (T-47D breast)
24.7 µM: TGI (786-0 renal)
> 54 µM: TGI (HCT-15 colon)
50.6 µM: TGI (MALME-3M melanoma)
17.1 µM: TGI (SR leukemia)
59.1 µM: TGI (NCI/ADR-RES ovarian)
> 61.5 µM: TGI (COLO 205 colon)
35.7 µM: TGI (SN12C renal)
> 92.2 µM: TGI (BT-549 breast)
> 100 µM: TGI (OVCAR-4 ovarian) | TGI (IGROV1 ovarian) | TGI (OVCAR-5 ovarian) | TGI (HCC-2998 colon) | TGI (NCI-H460 lung) | TGI (SF-295 CNS) | TGI (A549 NSCLC) | TGI (HOP-62 NSCLC) | TGI (ACHN renal) | TGI (SNB-19 CNS) | TGI (UACC-62 melanoma) | TGI (HCT-116 colon) | TGI (SK-MEL-28 melanoma) | TGI (MCF7 breast) | TGI (SF-268 CNS) | TGI (UO-31 renal) | TGI (NCI-H226 lung) | TGI (EKVX NSCLC) | TGI (SF-539 CNS) | TGI (NCI-H522 lung) | TGI (SK-MEL-2 melanoma) | TGI (KM12 colon) | TGI (LOX IMVI melanoma) | TGI (SK-OV-3 ovarian)
6.1 µM: TGI (RPMI-8226 leukemia)
56.6 µM: TGI (A498 renal)
> 50.2 µM: TGI (HL-60(TB) leukemia)
> 46.9 µM: TGI (CCRF-CEM leukemia)
> 46.6 µM: TGI (MOLT-4 leukemia)
> 74.5 µM: TGI (MDA-MB-435)
18.1 µM: TGI (CAKI-1 renal)
> 54.4 µM: TGI (HS 578T breast)
> 69.3 µM: TGI (SNB-75 CNS)
> 70.3 µM: TGI (MDA-MB-231 breast)
> 93.9 µM: TGI (OVCAR-8 ovarian)
